Assay results: patent publication US8569335B2, “Compounds derived from taurine, process of their preparation and pharmaceutical compositions containing these” (EMS S.A., priority 2008, dated 2013)
Like-named read-outs stand apart in the source and are kept apart here.

What was measured:
[1] = biological target: T1, iNOS (Homo sapiens, UniProt P35228); experiment: nitric oxide production by macrophages stimulated with LPS, indirect nitrite (NO2-) detection; format: cell-based; settings: 24 hours
T1 construct: The assay used the maximum production of nitric oxide (macrophages stimulated with LPS); endogenous in cells
T1 sequence (P35228 whole entry, species assumed): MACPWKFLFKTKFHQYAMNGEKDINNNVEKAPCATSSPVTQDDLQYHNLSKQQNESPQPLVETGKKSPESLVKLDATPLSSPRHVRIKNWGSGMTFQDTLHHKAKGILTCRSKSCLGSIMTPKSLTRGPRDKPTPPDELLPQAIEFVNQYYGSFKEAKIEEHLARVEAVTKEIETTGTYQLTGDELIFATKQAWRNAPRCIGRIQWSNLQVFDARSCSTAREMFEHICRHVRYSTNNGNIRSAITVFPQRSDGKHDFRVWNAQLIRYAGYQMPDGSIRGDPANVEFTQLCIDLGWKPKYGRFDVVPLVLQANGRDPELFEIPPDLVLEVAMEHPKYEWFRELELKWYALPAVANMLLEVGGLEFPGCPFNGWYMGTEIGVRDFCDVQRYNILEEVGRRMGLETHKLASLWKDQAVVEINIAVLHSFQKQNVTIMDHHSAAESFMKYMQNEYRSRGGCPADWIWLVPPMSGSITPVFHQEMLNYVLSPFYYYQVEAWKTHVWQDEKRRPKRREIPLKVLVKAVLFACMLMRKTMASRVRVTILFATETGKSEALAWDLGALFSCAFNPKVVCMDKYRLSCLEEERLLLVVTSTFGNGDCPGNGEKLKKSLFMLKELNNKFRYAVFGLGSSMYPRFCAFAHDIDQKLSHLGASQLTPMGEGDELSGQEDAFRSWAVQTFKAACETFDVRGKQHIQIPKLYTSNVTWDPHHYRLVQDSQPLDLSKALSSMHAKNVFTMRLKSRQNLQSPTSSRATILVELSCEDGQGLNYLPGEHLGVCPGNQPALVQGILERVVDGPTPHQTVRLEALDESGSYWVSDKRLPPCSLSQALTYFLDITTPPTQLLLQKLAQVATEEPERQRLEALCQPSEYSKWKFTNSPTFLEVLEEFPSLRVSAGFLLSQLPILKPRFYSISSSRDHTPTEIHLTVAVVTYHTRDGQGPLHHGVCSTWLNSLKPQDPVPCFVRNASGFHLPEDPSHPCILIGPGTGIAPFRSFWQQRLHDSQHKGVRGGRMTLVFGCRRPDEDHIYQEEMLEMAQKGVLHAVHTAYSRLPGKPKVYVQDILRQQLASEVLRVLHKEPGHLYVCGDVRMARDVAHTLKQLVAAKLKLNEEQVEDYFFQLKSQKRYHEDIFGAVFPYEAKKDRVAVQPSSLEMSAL

[2] = tested on: Wistar rat paw's edema; experiment: Wistar rat paw's edema induced by carragenin; format: in vivo; settings: oral; dosage of 44 mg/kg (example 2), 130 mg/Kg (example 3), 182 mg/Kg (example 1)
Method: 14, p. 2589-99, 2006); ÖZTÜRK, G. et al. (ÖZTÜRK, G. et al. “New analgesic and antiinflammatory agents 4(1H)-pyridinone derivatives”, Europe Journal Medicinal Chemistry, v. 37, n. 10 p. 829-34, 2002); LOLLI, et al. (LOLLI, et al. “A new class of ibuprofen derivatives with reduced gastrotoxicity”, Journal of Medicinal Chemistry, v. 44, p. 3463-68, 2001). Besides these, a paw's edema test was performed using taurine as control of its derived compounds, in the dosage of 10 mg/Kg according to HIRATA, T. et al. (HIRATA, T. et al. “Cyclo-oxygenase isozymes in mucosal ulcergenic and functional responses following barrier disruption in rat stomachs”, British Journal of Pharmacology, v. 122, p. 447-54, 1997).
In order to confirm the biological activity of the compounds of the present invention, tests were performed according to the pharmacological model of Wistar rat paw's edema using groups of six animals. It was verified that, in the reported concentrations, in the presence of equimolar dosages of the compounds described in the articles above-mentioned, such as referral drugs, a reduction of the inflammatory process with the use of the compounds of the invention was observed.
The compounds of the present invention were administered 1 (one) hour prior the inoculation of the irritant agent carragenin in the paws of the animals, with the aid of a gavage tube, orally, using water as solvent.
The control group had the irritant agent carragenin applied to the bottom of their posterior paws and, orally, saline solution. […] Other groups of animals had the taurine derived of the present invention (embodiments corresponding to Examples 1, 2 and 3, respectively—orally) administered 60 minutes prior to the carragenin (bottom of the paw).
The posterior paws were measured prior to the treatments and at each hour, for 6 hours after the carragenin was administered, using an thickness meter, in order to measure their volume (in mm). The results were expressed by the difference between the paw's measurement readings before and after the treatments.

[3] = tested on: Wistar female rats; settings: for survival: dosage of 1,000 mg/Kg
Method: Wistar female rats weighting between 200 and 250 g were used. […] To all studied groups, dosages of 1,000 and, alternatively, of 1,500 mg/kg were administered by gavage feeding.
After fourteen (14) days of administration and observation regarding the toxicity signs of general kind, effects on motion, behavior, breathing, number of deaths and form of occurrence, the animals that have survived were subjected to euthanasia in CO2 and had their organs such as heart, lungs, kidney, liver and stomach removed and weighted. For the analysis of the results were also considered the body weights.

[4] = tested on: gastric mucous membrane; experiment: Gastric ulcerogenesis (gastric ulcerogenesis index, G.U.I.); format: in vivo; settings: for alterations / color of the gastric mucous membrane: same animals as paw's edema model; for lesion index (gastric ulcerogenesis index): stomach 6 hours after paw readings, macroscopic and microscopic (640x)
Method: Gastric ulcerogenesis was verified in the same animals of the groups used for the model of paw's edema.
After 6 hours of the paw's measurement readings, the animals were subjected to euthanasia in CO2, and had their stomach removed, cut open in the longitudinal axis and washed with saline solution. In all experiments, the groups were composed of 6 animals, being kept the desired therapeutic activity, with absence of gastric lesions, and after the LD50 assays, it was concluded that the taurine derived compounds of the present invention are safe. It is worth observing, still, that other organs, such as lungs and intestine, as well as the macroscopic integrity of the other organs were kept preserved.
Through mucous membrane exposition, it was observed its color and integrity. In the case of lesions existence, they were counted and measured, according to the gastric ulcerogenesis index (G.U.I.) that follows numeric criteria for classification of lesions of the gastric mucous membrane: (lesions<1 mm=1; […]; 2.5 to 3.5 mm=3; 3.5 to 4.5 mm=4 and >4.5 mm=5). The obtained results were reported as averages±E. P. M. The results of the lesion experiment regarding the administration of the compounds of the present invention (embodiments corresponding to the Examples 1, 2 and 3) were neither macroscopically nor microscopically (640×) observed, being reported as lesion index of 0 (zero) value.

[5] = tested on: gastric ulceration; settings: pre clinic tests; cited from earlier work
[6] = oral administration; literature (Merck Index); cited from earlier work
[7] = tested on: isolated gastric mucosal cells; settings: cited from earlier work
[8] = tested on: gastric mucosal injury; settings: rats pre-treated intragastrically with 250 or 500 mg/kg 1 to 3 days before 25 mg/kg indometacin; cited from earlier work

N=C(N)NN [aminoguanidine]
inhibition of nitric oxide production (NOS inhibition activity) [1]: total inhibition of nitric oxide production

COc1ccc2c(c1)c(CC(=O)NCCS(=O)(=O)[O-])c(C)n2C(=O)c1ccc(Cl)cc1.[Na+] [Compound 64]
anti inflammatory activity in paw's edema [2]: anti inflammatory activity | weight of the organs (kidney, heart and liver) versus control animals ([3]; after the toxicity assay, 14 days): substantially close of those obtained with the control animals | survival ([3]; gavage): no animal has died | population survived ([3]; dosage of 1,500 mg/Kg, gavage): 66% | alterations / color of the gastric mucous membrane [4]: not observed alterations in the mucous membrane | lesion index (gastric ulcerogenesis index) [4]: 0

COC(=O)[C@@H](N)CCCNC(=N)N[N+](=O)[O-] [L-NAME, N^G-nitro-L-arginine methyl esther]
change in gastric acidity [5]: does not affect gastric acidity | lesion rate [5]: doubles | reduction of nitric oxide (measured as nitrite) [5]: 50%

CC(C)Cc1ccc(C(C)C(=O)NCCS(=O)(=O)[O-])cc1.[Na+] (stereo not shown) [Compound 27, [2-(4-isobuthylphenyl)propanoyl]amide ethanesulfonic acid]
anti inflammatory activity in paw's edema [2]: anti inflammatory activity | deaths ([3]; any of the tested dosages (1,000 and 1,500 mg/kg), gavage): no death in any of the tested dosages | alterations / color of the gastric mucous membrane [4]: did not present any color alteration in the mucous membrane | alterations / color of the gastric mucous membrane ([4]; listed as Example 1): not observed alterations in the mucous membrane | lesion index (gastric ulcerogenesis index) [4]: 0 | LD50 [6]: 1,050 mg/Kg

COc1ccc2cc(C(C)C(=O)NCCS(=O)(=O)[O-])ccc2c1.[Na+] (stereo not shown) [Compound 63, 2-{[2-(6-methoxy-2-naphthyl)propanoyl]amide}ethanesulfonic acid]
anti inflammatory activity in paw's edema [2]: anti inflammatory activity | survival ([3]; gavage): all animals survived | deaths ([3]; dosage of 1,500 mg/Kg, gavage): 17% | alterations / color of the gastric mucous membrane [4]: not observed alterations in the mucous membrane | lesion index (gastric ulcerogenesis index) [4]: 0 | LD50 [6]: 1,234 mg/Kg

CC(C)Cc1ccc(C(C)C(=O)O)cc1 (stereo not shown) [ibuprophen, reference compound]
alterations / color of the gastric mucous membrane [4]: color alteration of the mucous membrane

NCCS(=O)(=O)O [taurine, 2-aminoethanesulfonic acid]
increase of cellular resistance [7]: 21% | hemorrhagic gastric lesion [8]: lesion reduction
